{
  "source": "patent US10344002B2",
  "about": "“Compositions and methods for treating metabolic disorders” (NuSirt Sciences, Inc., priority 2016, dated 2019)",
  "key": {"3T3L1 adipocytes [1]": {"system": "3T3L1 adipocytes", "experiment": "Fatty acid oxidation (oxygen consumption rate) in 3T3L1 adipocytes", "type": "cell-based", "conditions": "for baseline OCR, area under the curve (FIG. 10A): control approximately 6000; for palmitate induced OCR, area under the curve (FIG. 10B): control approximately 52000"}, "[2]": {"system": "acetyl-CoA carboxylase (ACC)", "experiment": "Western blot, phosphorylated/total acetyl-CoA carboxylase in C2C12 muscle cells", "type": "cell-based", "conditions": "for increase in the ratio of phosphorylated to total ACC: 24 h; for ratio of phosphorylated/total ACC (FIG. 6B): 24 hours, control approximately 1.25", "experimental": "Cell Culture: C2C12 muscle cells were seeded with 400,000 cells per well on 6-well tissue culture plates in Dulbecco's modified eagle's medium (DMEM) containing 10% fetal bovine serum (FBS) and antibiotics (1% penicillin-streptomycin) at 37° C. in 5% CO2. After reaching confluency (24 hours), cells were induced to differentiate with DMEM containing 2% Horse Serum for 5 to 6 days until myotubes were fully formed. Cells were then treated with indicated concentration of Compound 2 for 4 and 24 hours.\n(§1) Compound 2 was dissolved in 100% DMSO to a stock concentration of 100 mM. This stock was further diluted to indicated concentrations in DMEM media.\n(§2) Western blots: Phospho-AMPK, AMPK, Phospho-ACC, ACC antibodies were obtained from Cell Signaling (Danvers, Mass.). Sir2 antibody was obtained from MyBiosource (San Diego, Calif.). Protein levels of cell extracts were measured by BCA kit (Thermo Scientific, Pittsburgh, Pa.). For Western blot, 10-50 μg protein was resolved on 4-15% gradient polyacrylaminde gels (Criterion precast gel, Bio-Rad Laboratories, Hercules, Calif.), transferred to either PVDF or nitrocellulose membranes, incubated in blocking buffer (3% BSA or 5% non-fat dry milk in TBS) and then incubated with primary antibody (1:1000 dilution), washed and incubated with horseradish peroxidase- or fluorescence-conjugated secondary antibody (1:10000 dilution). Visualization was conducted using BioRad ChemiDoc instrumentation and software (Bio-Rad Laboratories, Hercules, Calif.) and band intensity was assessed using Image Lab 4.0 with correction for background and loading controls."}, "Sir2": {"system": "Sir2", "experiment": "Western blot, Sir2 protein expression in C. elegans treated from L1 stage to adulthood", "type": "in vivo", "conditions": "for Sir2 protein expression, fold change of control (FIG. 7A): 3 days", "experimental": "(§3) C. elegans culture: Synchronized L1 wild-type worms were transferred to NGM agar plates with the following treatments until adulthood (3 days): 1. control NGM plates, 2. NGM plate with 10 nM Compound 2 added to E. coli suspension, 3. NGM plate with 100 nM Compound 2 added to E. coli suspension.\nas §2"}, "3T3L1 adipocytes [3]": {"system": "3T3L1 adipocytes", "experiment": "Lipid accumulation (Oil Red Staining) in 3T3L1 adipocytes", "type": "cell-based", "conditions": "72 hours; for Oil Red absorbance (FIG. 11): control approximately 0.66", "experimental": "Cell Culture: 3T3L1 adipocytes were seeded with 80,000 cells per well on 24-well tissue culture plates in high glucose (25 mM) DMEM containing 10% FBS and antibiotics. After reaching confluency (3 days), cells were induced to differentiate with a standard differentiation media (DM2-L1, Zen-Bio Inc., NC) for 3 days, then cells were maintained in DMEM (10% FBS, 1% penicillin-streptomycin) for another 8 days to induce lipid accumulation. Cells were then treated with indicated concentration of Compound 2 for 72 hours.\nas §1\nLipid accumulation (Oil Red Staining): 3T3L1 adipocytes were seeded and treated as described above. After 72 hours of treatment with Compound 2, lipid accumulation in adipocytes was measured via Oil Red Staining. Cells were washed with phosphate buffered saline (PBS) once, then cells were fixated with 10% formalin for 1 hour. After removal of the formalin, cells were washed with ddH2O twice, then washed with 60% isopropanol. Cells were dried completely. Cells were stained with Oil Red working solution (˜5 mM) for 25 minutes, then immediately washed with ddH2O four times, then dried completely again. Oil Red dye was eluted with 100% isopropanol and absorbance was read at 500 nm. Unstained cells plus isopropanol was used as a blank and subtracted from all readings. Data are represented as mean±SEM for each treatment group."}, "C. elegans": {"system": "C. elegans", "experiment": "Lipid accumulation (Oil Red Staining) in C. elegans", "type": "in vivo", "conditions": "for lipid accumulation, fold change of control (FIG. 12): 3 days, absorbance normalized to worm number", "experimental": "as §3\nLipid accumulation (Oil Red Staining): Worms were washed off the plate with 2×5 ml PBS and collected in centrifuge tubes. The tubes were centrifuged at 1000 g for 30 seconds, then the supernatant was removed and the worm pellet was washed again with 5 ml PBS. Then the supernatant was discarded except approximately 400 ul, to which 200 ul of 10% paraformaldehyde was added and then gently rocked for 60 minutes at room temperature. To remove the paraformaldehyde, worms were centrifuged at 1500 g for 30 sec, then washed 1× with 5 ml PBS, centrifuged and supernatant removed except 400 ul, to which 600 ul of 100% isopropanol was added and mixed by inverting the tube and incubated for 15 minutes at room temperature. After centrifugation, the isopropanol was removed, then 1 ml of 60% filtered OilRed (4 vol ddH2O and 6 vol of OilRed stock (OilRed stock: dilute 0.35 g OilRed O (Sigma Cat #0-0625, FW 408.5) in 100 ml 100% isopropanol, stirred overnight, then filtered (0.2 um) and stored at room temperature), let stand for 15 to 20 min and filter with 0.2 um) was added. Worms were rotated on shaker overnight at room temperature and protected from light. Next day, the worms were centrifuged at 1200 g for 30 seconds, the dye was removed, and worms were washed 4 times with ddH2O. At last washing step, 2 ml of ddH2O was added and worms were counted under microscope in 3×20 ul drops. The worm number was multiplied by 100 to calculate the total worm number for normalization of the absorbance data. Then worm solution was centrifuged again, supernatant removed and 300 ul of 100% isopropanol was added to elute the OilRed. 100 ul aliquots of OilRed-isopropanol in transferred to 96-well plate and the absorbance was measured at 500 nm."}},
  "data": [
    {"smiles": "CC(C)C[C@@H]1NC(N=C(N)N)=NC1=O", "note": "[Compound 2]", "values": [
      {"measurement": "increase of baseline OCR", "setting": "3T3L1 adipocytes [1]; 10 nM, 48 hours of treatment", "result": 50, "unit": "%"},
      {"measurement": "increase of palmitate stimulated OCR", "setting": "3T3L1 adipocytes [1]; 10 nM, 48 hours of treatment", "result": 43, "unit": "%"},
      {"measurement": "baseline OCR, area under the curve (FIG. 10A)", "setting": "3T3L1 adipocytes [1]; 10 nM", "result": "approximately 7900 pMoles/min"},
      {"measurement": "palmitate induced OCR, area under the curve (FIG. 10B)", "setting": "3T3L1 adipocytes [1]; 10 nM", "result": "approximately 78000 pMoles/min"},
      {"measurement": "effect on baseline and palmitate stimulated OCR", "setting": "3T3L1 adipocytes [1]; 100 nM, compared with 10 nM", "result": "smaller effect"},
      {"measurement": "baseline OCR, area under the curve (FIG. 10A)", "setting": "3T3L1 adipocytes [1]; 100 nM", "result": "approximately 7000 pMoles/min"},
      {"measurement": "palmitate induced OCR, area under the curve (FIG. 10B)", "setting": "3T3L1 adipocytes [1]; 100 nM", "result": "approximately 62000 pMoles/min"},
      {"measurement": "increase in the ratio of phosphorylated to total ACC", "setting": "[2]; 10 nM", "result": 46, "unit": "%"},
      {"measurement": "ratio of phosphorylated/total ACC (FIG. 6B)", "setting": "[2]; 10 nM", "result": "approximately 1.8"},
      {"measurement": "increase in the ratio of phosphorylated to total ACC", "setting": "[2]; 100 nM", "result": 21, "unit": "%"},
      {"measurement": "ratio of phosphorylated/total ACC (FIG. 6B)", "setting": "[2]; 100 nM", "result": "approximately 1.52"},
      {"measurement": "Sir2 protein expression, fold change of control (FIG. 7A)", "setting": "Sir2; 10 nM", "result": "approximately 1.65 fold change"},
      {"measurement": "Sir2 protein expression, fold change of control (FIG. 7A)", "setting": "Sir2; 100 nM", "result": "approximately 1.5 fold change"},
      {"measurement": "increase in Sir2 protein expression", "setting": "Sir2; L1 stage to adulthood (3 days), p=0.03", "result": "up to 60%"},
      {"measurement": "Oil Red absorbance (FIG. 11)", "setting": "3T3L1 adipocytes [3]; 1 nM, 500 nm", "result": "approximately 0.57"},
      {"measurement": "Oil Red absorbance (FIG. 11)", "setting": "3T3L1 adipocytes [3]; 10 nM, 500 nm", "result": "approximately 0.58"},
      {"measurement": "Oil Red absorbance (FIG. 11)", "setting": "3T3L1 adipocytes [3]; 50 nM, 500 nm", "result": "approximately 0.53"},
      {"measurement": "Oil Red absorbance (FIG. 11)", "setting": "3T3L1 adipocytes [3]; 100 nM, 500 nm", "result": "approximately 0.54"},
      {"measurement": "Oil Red absorbance (FIG. 11)", "setting": "3T3L1 adipocytes [3]; 200 nM, 500 nm", "result": "approximately 0.51"},
      {"measurement": "Oil Red absorbance (FIG. 11)", "setting": "3T3L1 adipocytes [3]; 350 nM, 500 nm", "result": "approximately 0.55"},
      {"measurement": "Oil Red absorbance (FIG. 11)", "setting": "3T3L1 adipocytes [3]; 500 nM", "result": "approximately 0.68"},
      {"measurement": "reduction in lipid accumulation (plateau effect)", "setting": "3T3L1 adipocytes [3]; 50 to 350 nM, p<0.05", "result": "up to 23%"},
      {"measurement": "lipid reducing effect", "setting": "3T3L1 adipocytes [3]; higher concentration (500 nM)", "result": "lost"},
      {"measurement": "lipid accumulation, fold change of control (FIG. 12)", "setting": "C. elegans; 10 nM", "result": "approximately 0.45 fold change"},
      {"measurement": "lipid accumulation, microscopic images (FIG. 13B)", "setting": "C. elegans; 100 nM", "result": "significant reduction"},
      {"measurement": "lipid accumulation, fold change of control (FIG. 12)", "setting": "C. elegans; 100 nM", "result": "approximately 0.35 fold change"},
      {"measurement": "reduction in lipid accumulation", "setting": "C. elegans; 100 nM, L1 stage to adulthood (3 days), p<0.05", "result": 60, "unit": "%"}
    ]}
  ]
}
